According to ChEMBL document CHEMBL4190285, “Borapetoside E, a Clerodane Diterpenoid Extracted from Tinospora crispa, Improves Hyperglycemia and Hyperlipidemia in High-Fat-Diet-Induced Type 2 Diabetes Mice” (J Nat Prod, 2017):
Calls of active or inactive are those of the source. The calls are words filed in the database; no cut-off is given here.

Legend:
[1] = system: Mus musculus; test: Antihyperglycemic activity in high fat diet-induced obese C57BL/6J mouse assessed as reduction in blood glucose AUC at 40 mg/kg, ip pretreated twice daily for 2.5 days followed by glucose challenge at 2 hrs post last dose by OGTT; assay type: functional, organism-based
[2] = system: Mus musculus; test: Improvement in insulin resistance in high fat diet-induced obese C57BL/6J mouse assessed as increase in phosphorylated AKT ser473 level in liver at 40 mg/kg, ip administered twice daily for 2.5 days measured at 2 hrs post last dose by Western blot analysis; assay type: functional, organism-based
[3] = system: Mus musculus; test: Improvement in insulin resistance in high fat diet-induced obese C57BL/6J mouse assessed as increase in phosphorylated GSK3beta expression in skeletal muscle at 40 mg/kg, ip administered twice daily for 2.5 days measured at 2 hrs post last dose by Western blot analysis; assay type: functional, organism-based
[4] = system: Mus musculus; test: Improvement in insulin resistance in high fat diet-induced obese C57BL/6J mouse assessed as reduction in fasting serum glucose level at 40 mg/kg, ip pretreated twice daily for 2.5 days followed by insulin challenge at 2 hrs post last dose measured up to 2 hrs by ITT; assay type: functional, organism-based
[5] = system: Mus musculus; test: Improvement in insulin resistance in high fat diet-induced obese C57BL/6J mouse assessed as increase in insulin sensitivity index at 40 mg/kg, ip pretreated twice daily for 2.5 days followed by insulin challenge at 2 hrs post last dose measured up to 2 hrs by ITT; assay type: functional, organism-based
[6] = system: Mus musculus; test: Improvement in insulin resistance in high fat diet-induced obese C57BL/6J mouse assessed as reduction in blood glucose AUC at 40 mg/kg, ip administered as single dose pretreated for 2 hrs followed by insulin challenge measured up to 2 hrs by ITT; assay type: functional, organism-based
[7] = system: Mus musculus; test: Antihyperlipidemic activity in high fat diet-induced obese C57BL/6J mouse assessed as serum LDL-C levels at 20 mg/kg, ip administered twice daily for 2.5 days measured at 2 hrs post last dose (reference value: 2.54 +/- 0.87 mmol/L); assay type: functional
[8] = system: Mus musculus; test: Antihyperlipidemic activity in high fat diet-induced obese C57BL/6J mouse assessed as serum HDL-C levels at 20 mg/kg, ip administered twice daily for 2.5 days measured at 2 hrs post last dose (reference value: 1.82 +/- 0.58 mmol/L); assay type: functional
[9] = system: Mus musculus; test: Antihyperlipidemic activity in high fat diet-induced obese C57BL/6J mouse assessed as serum total cholesterol levels at 20 mg/kg, ip administered twice daily for 2.5 days measured at 2 hrs post last dose (reference value: 4.56 +/- 1.01 mmol/L); assay type: functional
[10] = system: Mus musculus; test: Antihyperlipidemic activity in high fat diet-induced obese C57BL/6J mouse assessed as serum total cholesterol levels at 40 mg/kg, ip administered twice daily for 2.5 days measured at 2 hrs post last dose (reference value: 4.56 +/- 1.01 mmol/L); assay type: functional
[11] = system: Mus musculus; test: Antihyperlipidemic activity in high fat diet-induced obese C57BL/6J mouse assessed as reduction in cholesterol level in epididymis adipose tissue at 20 to 40 mg/kg, ip administered twice daily for 2.5 days measured at 2 hrs post last dose; assay type: functional, organism-based
[12] = system: Mus musculus; test: Antihyperlipidemic activity in high fat diet-induced obese C57BL/6J mouse assessed as reduction in free fatty acid level in epididymis adipose tissue at 20 to 40 mg/kg, ip administered twice daily for 2.5 days measured at 2 hrs post last dose; assay type: functional, organism-based
[13] = system: Mus musculus; test: Toxicity in HFFD-induced obese C57BL/6J mouse assessed as effect on food intake at 40 mg/kg, ip administered twice daily for 2.5 days followed by once daily dosing up to 16 days measured daily during compound dosing; assay type: organism-based; conditions: in vivo
[14] = system: Mus musculus; test: Antiobesity activity in HFFD-induced obese C57BL/6J mouse assessed as reduction in body weight at 40 mg/kg, ip administered twice daily for 2.5 days followed by once daily dosing up to 16 days relative to control; assay type: functional; parameters: scale not given: the % may be the effect or the level left
[15] = system: Mus musculus; test: Antiobesity activity in HFFD-induced obese C57BL/6J mouse assessed as reduction in hepatic steatosis at 40 mg/kg, ip administered twice daily for 2.5 days followed by once daily dosing up to 16 days measured at 2 hrs post last dose by Oil red O staining based histological analysis; assay type: functional, organism-based
[16] = system: Mus musculus; test: Antiobesity activity in HFFD-induced obese C57BL/6J mouse assessed as reduction in size of adipocytes at 40 mg/kg, ip administered twice daily for 2.5 days followed by once daily dosing up to 16 days measured at 2 hrs post last dose by hematoxylin-eosin staining based histological analysis; assay type: functional, organism-based
[17] = system: Mus musculus; test: Increase in carbon dioxide production in HFD-induced obese C57BL/6J mouse at 40 mg/kg, ip administered twice daily for 2.5 days measured up to 12.6 hrs under dark condition; assay type: functional, organism-based
[18] = system: Mus musculus; test: Effect on respiratory exchange ratios in HFD-induced obese C57BL/6J mouse at 40 mg/kg, ip administered twice daily for 2.5 days measured up to 12.6 hrs under dark condition; assay type: functional, organism-based
[19] = system: Mus musculus; test: Down regulation of SREBP2 mRNA expression in HFD-induced obese C57BL/6J mouse liver at 20 to 40 mg/kg, ip administered twice daily for 2.5 days measured at 2 hrs post last dose by RT-PCR analysis; assay type: functional, organism-based
[20] = system: Mus musculus; test: Down regulation of SREBP2 mRNA expression in HFD-induced obese C57BL/6J mouse adipose tissue at 20 to 40 mg/kg, ip administered twice daily for 2.5 days measured at 2 hrs post last dose by RT-PCR analysis; assay type: functional, organism-based
[21] = system: Mus musculus; test: Down regulation of ACL1 mRNA expression in HFD-induced obese C57BL/6J mouse liver at 20 to 40 mg/kg, ip administered twice daily for 2.5 days measured at 2 hrs post last dose by RT-PCR analysis; assay type: functional, organism-based
[22] = system: Mus musculus; test: Down regulation of FAS mRNA expression in HFD-induced obese C57BL/6J mouse adipose tissue at 20 to 40 mg/kg, ip administered twice daily for 2.5 days measured at 2 hrs post last dose by RT-PCR analysis; assay type: functional, organism-based
[23] = system: Mus musculus; test: Down regulation of HMGCR mRNA expression in HFD-induced obese C57BL/6J mouse adipose tissue at 20 to 40 mg/kg, ip administered twice daily for 2.5 days measured at 2 hrs post last dose by RT-PCR analysis; assay type: functional, organism-based
[24] = system: Mus musculus; test: Increase in phosphorylated AMPKalpha level in HFFD-induced obese C57BL/6J mouse liver at 20 to 40 mg/kg, ip administered twice daily for 2.5 days measured at 2 hrs post last dose by Western blot analysis; assay type: functional, organism-based
[25] = system: Mus musculus; test: Down regulation of pre-SREBP1 expression in HFD-induced obese C57BL/6J mouse liver at 20 to 40 mg/kg, ip administered twice daily for 2.5 days measured at 2 hrs post last dose by Western blot analysis; assay type: functional, organism-based
[26] = system: Mus musculus; test: Improvement in serum ALT level in HFFD-induced obese C57BL/6J mouse assessed as serum ALT level at 40 mg/kg, ip administered twice daily for 2.5 days followed by once daily dosing up to 16 days measured at 2 hrs post last dose (reference value: 20.49 +/- 4.5 IU/L); assay type: functional
[27] = system: Mus musculus; test: Improvement in serum AST level in HFFD-induced obese C57BL/6J mouse assessed as serum AST level at 40 mg/kg, ip administered twice daily for 2.5 days followed by once daily dosing up to 16 days measured at 2 hrs post last dose (reference value: 15.14 +/- 3.84 IU/L); assay type: functional

COC(=O)C1=CCC[C@H]2[C@](C)(C[C@@H](O[C@@H]3O[C@H](CO)[C@@H](O)[C@H](O)[C@H]3O)c3ccoc3)[C@H]3C[C@H](OC3=O)[C@@]12C
Activity [1]: Active | Activity [2]: Active | Activity [3]: Active | Activity [4]: Active | Activity [5]: Active | Activity [6]: Active | Activity [7]: 2.21 mmol/L | Activity [8]: 1.2 mmol/L | Activity [9]: 3.8 mmol/L | Activity [10]: 2.24 mmol/L | Activity [11]: Active | Activity [12]: Active | Activity [13]: Non-Toxic | Activity [14]: 8.7% | Activity [15]: Active | Activity [16]: Active | Activity [17]: Active | Activity [18]: inactive | Activity [19]: Active | Activity [20]: Active | Activity [21]: Active | Activity [22]: Active | Activity [23]: Active | Activity [24]: inactive | Activity [25]: Active | Activity [26]: 15.75 IU/L | Activity [27]: 8.61 IU/L
